Source: patent US9044485B2, “Ceftolozane antibiotic compositions” (priority 2013, dated 2015)

What was measured:
Enterobacteriaceae = experiment: In vitro activity against Gram-positive and Gram-negative bacteria (surveillance data); type: cell-based; details: against Acinetobacter spp. and common species of Enterobacteriaceae
Protocol: The in vitro activity of ceftolozane and ceftolozane/tazobactam was evaluated against a broad range of Gram-positive and Gram-negative bacteria.

P. aeruginosa = experiment: Minimum inhibitory concentration (MIC90); type: cell-based; details: Pseudomonas aeruginosa
[1] = Intrinsic pH of ceftolozane in solution; type: physicochemical; details: in solution (2%)

| SMILES | effect on in vitro activity of ceftolozane (in words) (Enterobacteriaceae) | MIC90 (P. aeruginosa) [µg/mL] | intrinsic pH [1] |
| --- | --- | --- | --- |
| C[C@]1(Cn2ccnn2)[C@H](C(=O)O)N2C(=O)C[C@H]2S1(=O)=O [tazobactam, (2S,3S,5R)-3-methyl-7-oxo-3-(1H-1,2,3-triazol-1-ylmethyl)-4-thia-1-azabicyclo[3.2.0]heptane-2-carboxylic acid 4,4-dioxide] | potentiated the activity of ceftolozane |  |  |
| Cn1c(N)c(NC(=O)NCCN)c[n+]1CC1=C(C(=O)O)N2C(=O)[C@@H](NC(=O)/C(=N\OC(C)(C)C(=O)O)c3nsc(N)n3)[C@H]2SC1 [ceftolozane, (6R,7R)-3-[(5-amino-4-{[(2-aminoethyl)carbamoyl]amino}-1-methyl-1H-pyrazol-2-ium-2-yl)methyl]-7-({(2Z)-2-(5-amino-1,2,4-thiadiazol-3-yl)-2-[(1-carboxy-1-methylethoxy)imino]acetyl}amino)-8-oxo-5-thia-1-azabicyclo[4.2.0]oct-2-ene-2-carboxylate] |  | ≤ 2 | 1.92 |
